The values below come from PubChem BioAssay AID256 (DTP/NCI, 2004).

In this experiment the test system is CD2F1 mice, L1210 leukemia ip, survival T/C. As to the kind of experiment: NCI In Vivo Anticancer Drug Screen. Data for tumor model L1210 Leukemia (intraperitoneal) in CD2F1 (CDF1) mice. The settings on record: higher = longer survival. The gist of the method:
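Antitumor effect is scored in animals hosting a serially transplanted tumor. Values compare compound-dosed animals against vehicle-only controls as a simple quotient.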

[1] abbreviates: endpoint: mean survival time, dose: 100.0 mg/kg/injection, schedule: Q01DX001 (ip), vehicle: saline with Tween-80.
Setting [2] is: endpoint: mean survival time, dose: 100.0 mg/kg/injection, schedule: Q01DX009 (ip), vehicle: saline with Tween-80.
[3] abbreviates: endpoint: mean survival time, dose: 200.0 mg/kg/injection, schedule: Q01DX001 (ip), vehicle: saline with Tween-80.
The mark [4] stands for this setting: endpoint: mean survival time, dose: 200.0 mg/kg/injection, schedule: Q01DX009 (ip), vehicle: saline with Tween-80.
Setting [5] is: endpoint: mean survival time, dose: 400.0 mg/kg/injection, schedule: Q01DX001 (ip), vehicle: saline with Tween-80.
Setting [6] is: endpoint: mean survival time, dose: 100.0 mg/kg/injection, schedule: Q04DX003 (ip), vehicle: saline with Tween-80.
Where [7] appears, read: endpoint: mean survival time, dose: 200.0 mg/kg/injection, schedule: Q04DX003 (ip), vehicle: saline with Tween-80.
The mark [8] stands for this setting: endpoint: mean survival time, dose: 25.0 mg/kg/injection, schedule: Q01DX009 (ip), vehicle: Klucel (hydroxypropylcellulose) (HPC).
Setting [9] is: endpoint: mean survival time, dose: 50.0 mg/kg/injection, schedule: Q01DX009 (ip), vehicle: Klucel (hydroxypropylcellulose) (HPC).
The mark [10] stands for this setting: endpoint: mean survival time, dose: 100.0 mg/kg/injection, schedule: Q01DX009 (ip), vehicle: Klucel (hydroxypropylcellulose) (HPC).
[11] abbreviates: endpoint: mean survival time, dose: 50.0 mg/kg/injection, schedule: Q04DX002 (ip), vehicle: saline with Tween-80.
[12] abbreviates: endpoint: mean survival time, dose: 100.0 mg/kg/injection, schedule: Q04DX002 (ip), vehicle: saline with Tween-80.
The mark [13] stands for this setting: endpoint: mean survival time, dose: 400.0 mg/kg/injection, schedule: Q01DX009 (ip), vehicle: saline with Tween-80.

Molecules are shown by their SMILES. Where “and” joins values, the source holds several entries; their conditions need not be identical. Identical values can stand only once. Inconclusive results and toxic doses are left out.

`C=C(NC(C)=O)C(=O)O`: the T/C is 96 % of control under setting [1]; 103 % of control under setting [2]; 97 % of control under setting [3]; 89 % of control under setting [4]; 97 % of control under setting [5].

As to `O=C1OC(=O)C2C1CC1C(=O)OC(=O)C12` (centres undefined), the T/C is 97 % of control (endpoint: mean survival time, dose: 50.0 mg/kg/injection, schedule: Q04DX003 (ip), vehicle: Klucel (hydroxypropylcellulose) (HPC)); 100 % of control (endpoint: mean survival time, dose: 100.0 mg/kg/injection, schedule: Q04DX003 (ip), vehicle: Klucel (hydroxypropylcellulose) (HPC)); 96 % of control (endpoint: mean survival time, dose: 200.0 mg/kg/injection, schedule: Q04DX003 (ip), vehicle: Klucel (hydroxypropylcellulose) (HPC)).

Regarding `O=C1C(=O)c2ccccc2-c2ccccc21.O=C1C(=O)c2ccccc2-c2ccccc21.[Hg]`, the T/C (endpoint: mean survival time, dose: 1.56 mg/kg/injection, schedule: Q04DX002 (ip), vehicle: saline with Tween-80) is 87 % of control; the T/C (endpoint: mean survival time, dose: 3.13 mg/kg/injection, schedule: Q04DX002 (ip), vehicle: saline with Tween-80) was 98 % of control; the T/C (endpoint: mean survival time, dose: 6.25 mg/kg/injection, schedule: Q04DX002 (ip), vehicle: saline with Tween-80) was 113 % of control.

In the case of `CC(=O)CC(C)=O.CC(=O)CC(C)=O.CC(=O)CC(C)=O.CC(=O)CC(C)=O.[Hf]`, the T/C by setting is: under setting [6], 86 % of control; under setting [7], 94 % of control.

Take `Cc1cc(N(CCI)CCI)ccc1N=Nc1ccccc1C(=O)O`: the T/C was 122 % of control under setting [8], 122 % of control under setting [9] and 122 % of control under setting [10].

With `[Cl][Pt+2][Cl].[NH-]CCC([NH-])C(=O)O` (centres undefined), the T/C runs as follows: (endpoint: mean survival time, dose: 12.5 mg/kg/injection, schedule: Q04DX003 (ip), vehicle: saline) 107 % of control; (endpoint: mean survival time, dose: 25.0 mg/kg/injection, schedule: Q04DX003 (ip), vehicle: saline) 121 % of control; (endpoint: mean survival time, dose: 50.0 mg/kg/injection, schedule: Q04DX003 (ip), vehicle: saline) 115 % of control.

As to `O=C(/C=C\c1ccc(Cl)c(Cl)c1)/C=C/c1ccc(Cl)c(Cl)c1`, the T/C is 95 % of control (endpoint: mean survival time, dose: 25.0 mg/kg/injection, schedule: Q04DX002 (ip), vehicle: saline with Tween-80); 87 % of control under setting [11]; 106 % of control under setting [12].

Regarding `Cc1nc(=O)cnn1C1OC(CO)C(O)C1O` (centres undefined), the T/C by setting is: (endpoint: mean survival time, dose: 12.5 mg/kg/injection, schedule: Q01DX005 (ip), vehicle: distilled water + Tween-80) 102 % of control; (endpoint: mean survival time, dose: 25.0 mg/kg/injection, schedule: Q01DX005 (ip), vehicle: distilled water + Tween-80) 102 % of control; (endpoint: mean survival time, dose: 50.0 mg/kg/injection, schedule: Q01DX005 (ip), vehicle: distilled water + Tween-80) 97 % of control; (endpoint: mean survival time, dose: 100.0 mg/kg/injection, schedule: Q01DX005 (ip), vehicle: distilled water + Tween-80) 103 % of control; (endpoint: mean survival time, dose: 200.0 mg/kg/injection, schedule: Q01DX005 (ip), vehicle: distilled water + Tween-80) 105 % of control.

Take `Nc1nc2c(ncn2-c2cccc(NC(=O)c3cccc(S(=O)(=O)F)c3)c2)c(=O)[nH]1`: the T/C under setting [11] is 108 % of control; the T/C under setting [12] was 94 % of control; the T/C (endpoint: mean survival time, dose: 200.0 mg/kg/injection, schedule: Q04DX002 (ip), vehicle: saline with Tween-80) was 90 % of control.

In the case of `CCC1C(=O)OCc2c1cc1n(c2=O)C(CC)c2c-1nc1ccccc1c2Cl` (centres undefined), the T/C runs as follows: (endpoint: mean survival time, dose: 100.0 mg/kg/injection, schedule: Q04DX003 (ip), vehicle: saline) 98 % of control; (endpoint: mean survival time, dose: 200.0 mg/kg/injection, schedule: Q04DX003 (ip), vehicle: saline) 95 % of control; (endpoint: mean survival time, dose: 400.0 mg/kg/injection, schedule: Q04DX003 (ip), vehicle: saline) 90 % of control.

As for `Nc1ccc(OCCc2c(N)nc(N)nc2N)cc1`, the T/C (endpoint: mean survival time, dose: 100.0 mg/kg/injection, schedule: Q04DX002 (ip), vehicle: Klucel (hydroxypropylcellulose) (HPC)) is 98 % of control; the T/C (endpoint: mean survival time, dose: 200.0 mg/kg/injection, schedule: Q04DX002 (ip), vehicle: Klucel (hydroxypropylcellulose) (HPC)) is 102 % of control; the T/C (endpoint: mean survival time, dose: 400.0 mg/kg/injection, schedule: Q04DX002 (ip), vehicle: Klucel (hydroxypropylcellulose) (HPC)) is 98 % of control.

For the compound `COc1ccc(Cl)[n+]([O-])n1`, the T/C is, setting by setting: (endpoint: mean survival time, dose: 3.12 mg/kg/injection, schedule: Q01DX009 (ip), vehicle: Klucel (hydroxypropylcellulose) (HPC)) 94 % of control and 103 % of control; (endpoint: mean survival time, dose: 6.25 mg/kg/injection, schedule: Q01DX009 (ip), vehicle: Klucel (hydroxypropylcellulose) (HPC)) 97 % of control and 101 % of control; (endpoint: mean survival time, dose: 12.5 mg/kg/injection, schedule: Q01DX009 (ip), vehicle: Klucel (hydroxypropylcellulose) (HPC)) 96 % of control and 106 % of control; under setting [8], 98 % of control and 106 % of control; under setting [9], 94 % of control and 101 % of control; under setting [10], 101 % of control and 104 % of control.

Consider `O=c1oc(-c2ccc(OCc3ccccc3)c(OCc3ccccc3)c2)c2c3ccccc3ccn12`, for which the T/C was 88 % of control (endpoint: median survival time, dose: 25.0 mg/kg/injection, schedule: Q04DX003 (ip), vehicle: saline with Tween-80); 88 % of control (endpoint: median survival time, dose: 50.0 mg/kg/injection, schedule: Q04DX003 (ip), vehicle: saline with Tween-80); 88 % of control (endpoint: median survival time, dose: 100.0 mg/kg/injection, schedule: Q04DX003 (ip), vehicle: saline with Tween-80); 100 % of control (endpoint: median survival time, dose: 200.0 mg/kg/injection, schedule: Q04DX003 (ip), vehicle: saline with Tween-80).

For the compound `O=[N+]([O-])c1cc(C2CCCCC2)c(O)c([N+](=O)[O-])c1`, the T/C was 98 % of control (endpoint: mean survival time, dose: 5.0 mg/kg/injection, schedule: Q01DX009 (ip), vehicle: saline with Tween-80); 93 % of control (endpoint: mean survival time, dose: 10.0 mg/kg/injection, schedule: Q01DX009 (ip), vehicle: saline with Tween-80); 89 % of control (endpoint: mean survival time, dose: 20.0 mg/kg/injection, schedule: Q01DX009 (ip), vehicle: saline with Tween-80).

Take `CCC(C(=O)O)c1ccc(-c2ccccc2)cc1` (centres undefined): the T/C under setting [1] is 91 % of control, the T/C under setting [3] was 93 % of control and the T/C under setting [5] was 92 % of control.

As for `CCCCOc1ccccc1NC(=O)CCl`, the T/C is 97 % of control under setting [2], 92 % of control under setting [4] and 95 % of control under setting [13].

For the compound `NCCCCOc1ccc([N+](=O)[O-])cc1Cl`, the T/C was 100 % of control (endpoint: mean survival time, dose: 75.0 mg/kg/injection, schedule: Q01DX001 (ip), vehicle: saline) and 102 % of control (endpoint: mean survival time, dose: 150.0 mg/kg/injection, schedule: Q01DX001 (ip), vehicle: saline).

On to `Cc1ccc(S(=O)(=O)NC(=O)c2ccccc2)cc1`, for which the T/C runs as follows: under setting [2], 95 % of control; under setting [6], 98 % of control; under setting [4], 98 % of control; under setting [7], 102 % of control; under setting [13], 95 % of control; (endpoint: mean survival time, dose: 400.0 mg/kg/injection, schedule: Q04DX003 (ip), vehicle: saline with Tween-80) 101 % of control.

For `ONc1nc(NO)c2[nH]cnc2n1`, the T/C was 124 % of control (endpoint: mean survival time, dose: 2.3 mg/kg/injection, schedule: Q01DX001 (ip), vehicle: other); 122 % of control (endpoint: mean survival time, dose: 3.5 mg/kg/injection, schedule: Q01DX001 (ip), vehicle: other); 160 % of control and 168 % of control (endpoint: mean survival time, dose: 8.0 mg/kg/injection, schedule: Q01DX001 (ip), vehicle: other); 153 % of control (endpoint: mean survival time, dose: 12.5 mg/kg/injection, schedule: Q01DX001 (ip), vehicle: other); 156 % of control (endpoint: mean survival time, dose: 29.0 mg/kg/injection, schedule: Q01DX001 (ip), vehicle: other); 153 % of control and 172 % of control (endpoint: mean survival time, dose: 44.0 mg/kg/injection, schedule: Q01DX001 (ip), vehicle: other). Moreover, the T/C was 190 % of control (endpoint: mean survival time, dose: 66.0 mg/kg/injection, schedule: Q01DX001 (ip), vehicle: other); 202 % of control (endpoint: mean survival time, dose: 100.0 mg/kg/injection, schedule: Q01DX001 (ip), vehicle: other); 182 % of control (endpoint: mean survival time, dose: 150.0 mg/kg/injection, schedule: Q01DX001 (ip), vehicle: other).

For `CN(C)N=Nc1ccc(Cl)cc1`, the T/C runs as follows: (endpoint: mean survival time, dose: 79.0 mg/kg/injection, schedule: Q01DX009 (ip), vehicle: Klucel (hydroxypropylcellulose) (HPC)) 111 % of control; (endpoint: mean survival time, dose: 118.0 mg/kg/injection, schedule: Q01DX009 (ip), vehicle: Klucel (hydroxypropylcellulose) (HPC)) 119 % of control.
